Experimental data taken from patent publication US20230322715A1, “BROAD SPECTRUM ANTI-CANCER COMPOUNDS” (The Regents of the University of California, priority 2019, published 2023).
“Also recorded” adds a separate entry of the source. Like-named read-outs stand apart in the source and are kept apart here. Values belong to the compound of their own block, whether it stands above or below them.

Key:
ALKBH5 [1] = biological target: T1, ALKBH5 (Homo sapiens (Human), UniProt Q6P6C2); test: Fluorescence enzymatic inhibition assay (m6A7-Broccoli RNA / DFHBI-1T) against ALKBH5; type: biochemical; settings: for IC50: read-out: Enzymatic IC50 ALKBH5
Experimental: (§1) Inhibitors were added in concentrations ranging from 0.008-40 μM; all inhibitors were dissolved in DMSO and added to a final concentration of 0.2% DMSO. […] After incubation at room temperature for 2 hours, the plates were left at 4° C. overnight (16 hours) to allow DFHBI-1T to bind to A7-Broccoli RNA. […] Sigmoidal dose-response curves were fitted in GraphPad Prism 6. All assays were performed in triplicate, with additional repetitions added as necessary.

FTO [2] = biological target: T2, FTO (Homo sapiens (Human), UniProt Q9C0B1); test: Fluorescence enzymatic inhibition assay (m6A7-Broccoli RNA / DFHBI-1T) against FTO; type: biochemical; settings: for selectivity between FTO and ALKBH5: comparison of enzymatic IC50 values; for IC50: read-out: Enzymatic IC50 FTO
Experimental: In order to determine their efficacy as FTO inhibitors, the compounds were screened by a fluorescence enzymatic inhibition assay developed previously by the Jaffrey lab.^44 Briefly, a nonfluorescent methylated RNA substrate termed “m6A7-Broccoli” is incubated with FTO in the presence of 2-oxoglutarate (300 μM), (NH4)2Fe(SO4)2·6H2O (300 μM), and L-ascorbate (2 mM) for 2 hours at room temperature in reaction buffer (50 mM NaHEPES, pH 6).
as §1

[3] = tested on: TS576 glioblastoma stem cells; test: Neurosphere (tumorosphere) formation assay, TS576; type: cell-based, human; settings: 2 days
Experimental: To understand the effects of our FTO inhibitors on the self-renewal properties of GSCs, tumorospheres cultured from the patient-derived GSC line TS576 were treated with 30 μM of FTO-04, FTO-10, FTO-11, or FTO-12 (FIG. 4-3AB; cell line gifted from the Furnari lab)^0.45, 46 The GSCs were cultured in sphere-forming assays for 24 hours, then treated with either inhibitors or DMSO control for 2 days. The size of the tumorospheres was calculated using ImageJ.
Early passaged GSCs were used to understand the efficacy of ALK-04 on the self-renewal capacity of GSCs by tumorsphere-formation assay as described earlier^10, 11. In brief, GSCs were seeded at 4×10^4 cells in 24 well plate and cultured for 3 days followed by treatment with ALK-04 inhibitors at 20 μM daily for 3 days. After 3 days of treatment the images of the tumorospheres were imaged with phase contrast microscope and size was measured with Image J, to understand the effects of drugs on the self-renewal of GSCs on sphere formation. This process was also repeated for healthy neural stem cells (hNSCs) treated daily with 20 μM ALK-04 for three days to assess the therapeutic ratio.

ALKBH5 [4] = biological target: T1, ALKBH5; settings: reported from Huang et. al 2019; read-out: Enzymatic IC50 ALKBH5; cited from earlier work
MONOMAC6 and NB4 cells = settings: Huang et. al; cited from earlier work
[5] = tested on: human neural stem cells (hNSC); test: Neurosphere formation assay, healthy neural stem cells; type: cell-based; settings: 20 μM, 2 days
[6] = tested on: m6A mRNA levels in TS576 cells; test: m6A dot blot assay on poly(A)+ mRNA; type: cell-based, human; settings: TS576 poly(A)+ mRNA, 2, 10, 50 ng, vs DMSO or shControl
Experimental: Next, we sought to determine if FTO-04 was able to alter m6A levels in purified mRNA from GSCs by m6A dot blot assay. TS576 cells were treated with 2, 10, and 50 ng shControl or shFTO to establish the relative change in m6A mRNA levels due to FTO knockdown. […] TS576 cells were then treated with 2, 10, and 50 ng of either DMSO or FTO-04 (FIG. 4-33B).
Polyadenylated mRNA were isolated from TS576 cells treated with either DMSO, FTO-04 (30 μM), and control (shControl) or FTO lentivirus (shFTO) knockdown samples by using Magnetic mRNA Isolation Kit (New England Biolabs, S1550S). Isolated mRNA was quantified, serially diluted and denatured at 95° C. for 3 min, then chilled on ice to prevent reformation of secondary structure of mRNA. Denatured mRNA samples were spotted on an Amersham Hybond-N^+ membrane (GE Healthcare, RPN3050B) and cross-linked to the membrane with UV radiation. After crosslinking the membrane was washed with phosphate buffer saline with 0.1% tween-20 (PBST) and blocked in 5% of non-fat milk in PBST buffer, and then incubated with anti-m^6 A antibody (1:1000; abcam) overnight at 4° C. The membrane was then washed as before and incubated in HRP-conjugated secondary antibodies for 1 h at room temperature. The membrane was then developed with Thermo ECL SuperSignal West Femto Maximum Sensitivity Substrate (Thermo Fisher Scientific).

[7] = tested on: GBM-6 glioblastoma stem cells; test: Neurosphere (tumorosphere) formation assay, GBM-6; type: cell-based, human; settings: GBM-6, 20 μM, 2 days
FTO [8] = biological target: T2, FTO; test: ELISA-based FTO inhibition assay (orthogonal control); type: biochemical; settings: biotinylated m6A-RNA, 0-40 μM inhibitor; read-out: IC50 against FTO by ELISA assay
Experimental: The reaction mixture was then incubated with neutravidin coated 96-well plates overnight at 4° C., washed and blocked, incubated with m^6 A-specific antibody for 1 hour at room temperature, washed and blocked, and incubated with horseradish peroxidase-conjugated secondary antibody for 1 hour at room temperature. After extensive washing, the wells were treated with 3,3′,5,5′-tetramethylbenzidine (TMB) for 30 minutes at room temperature and the absorbance was measured at 390 nm. Absorbance was normalized to control wells for each concentration of inhibitor without cofactor 2-oxoglutarate to control for non-specific antibody binding, and the data were fit to a sigmoidal dose-response curve in GraphPad Prism 6.
The reaction mixture was then incubated with neutravidin coated 96-well plates (Pierce) overnight at 4° C., washed and blocked, incubated with m6A -specific primary antibody (Abcam ab151230, 1:400 dilution) for 1 hour at room temperature, washed and blocked (phosphate buffer saline with 0.1% tween-20 (PBST); blocked in 5% of non-fat milk in PBST buffer), and incubated with horseradish peroxidase-conjugated secondary antibody (Sigma-Aldrich, A6154, 1:5000 dilution) for 1 hour at room temperature. […]

[9] = tested on: GBM-GSC-23 glioblastoma stem cells; test: Neurosphere (tumorosphere) formation assay, GBM-GSC-23; type: cell-based, human; settings: GSC-23, 20 μM, 2 days
FTO [10] = biological target: T2, FTO; test: Steady-state (Michaelis-Menten) inhibition kinetics of FTO; type: biochemical; settings: velocity and double reciprocal plots, 0-40 μM inhibitor, substrate 0-10 μM
ALKBH5 [11] = biological target: T1, ALKBH5; test: Michaelis-Menten kinetics against ALKBH5; type: biochemical
B16 melanoma tumors = test: B16 melanoma mouse model, GVAX/anti-PD-1 immunotherapy with ALKBH5 inhibitor; type: in vivo; settings: combined with PD-1 Ab and GVAX, vs control
Experimental: Animal studies and procedures were approved by the UCSD Institutional Animal Care and use Committee. Female C57BL/6J wild-type mice were obtained from The Jackson Laboratory and housed in the UCSD specific-pathogen free facility. 86.129S2-Tcratm1Mcrn/J (Tcra+) mice, which are CDC and CDB· T cell deficient, were obtained from The Jackson Laboratory and bred on-site. For the standard protocol, mice (aged 9-12 weeks at use) were injected subcutaneously (s.c.) with 5×10^5 B16 cells (NTC control, Fto-KO, or Alkbh5-KO, generated as described below) into the left flank on day 0, and then injected with 1 OE irradiated (100 GY) BIG-GM CSF cells (GVAX) into the opposite flank on days 1 and 4 to elicit an anti-tumor immune response. Mice were then injected intraperitoneally (i p.) with 10 mg/kg (−200 pgimouse) of rat monoclonal anti-mouse RD-I Ab (Bio X Cell, clone 29F. IA 12) on the days as indicated on the figures. For PD-1 Ab treatment alone, mice were implanted with B16 cells and treated with antibody on day 6, 9 and 12. For the Treg depletion experiments, mice were injected as described above and were additionally injected i.p. vittl rat anti-mouse CD25 Ab (Bio X Cell, clone 7D4) on day 11. Tumors were measured every 3 days beginning on day 7. […]

B16 cells = test: B16 cell proliferation assay with ALKBH5 inhibitor; type: cell-based, mouse; settings: 10, 30 and 50 μM ALKBH5 inhibitor vs DMSO
Experimental: B16 cells were plated at a density of 2000/well in 96-well plates in triplicate and incubated for 0, 2, 4, or 6 days before cell numbers were determined by manual counting or by using a CellTiter AQueous One Solution Cell Proliferation Assay kit (Promega).
Our results thus far indicate that loss f-m6A demethylase Alkbh5, in B16 melanoma cells, potentiates the efficacy of GVAX/anti-PD-1 therapy. To identify clinically relevant pharmacological inhibitors of Alkbh5, we have identified a specific inhibitor of ALKBH5, named ALK-04, by in silico screening of compounds using the X-ray crystal structure of ALKBH5 (PDB ID code 4NRO) and by performing structure-activity relationship studies on a library of synthesized compounds. […] Next, we compared tumor growth of control and inhibitor-treated mice during immunotherapy.

[12] = elogD / log D determination; settings: Table 700 compounds
[13] = m6A7-Broccoli fluorescence assay, 0.250 μM ALKBH5
[14] = m6A7-Broccoli fluorescence assay, 0.250 μM FTO, inhibitor up to 40 μM, triplicate
[15] = TS576, 30 μM inhibitor, vs vehicle control

T1 sequence (Q6P6C2 whole entry): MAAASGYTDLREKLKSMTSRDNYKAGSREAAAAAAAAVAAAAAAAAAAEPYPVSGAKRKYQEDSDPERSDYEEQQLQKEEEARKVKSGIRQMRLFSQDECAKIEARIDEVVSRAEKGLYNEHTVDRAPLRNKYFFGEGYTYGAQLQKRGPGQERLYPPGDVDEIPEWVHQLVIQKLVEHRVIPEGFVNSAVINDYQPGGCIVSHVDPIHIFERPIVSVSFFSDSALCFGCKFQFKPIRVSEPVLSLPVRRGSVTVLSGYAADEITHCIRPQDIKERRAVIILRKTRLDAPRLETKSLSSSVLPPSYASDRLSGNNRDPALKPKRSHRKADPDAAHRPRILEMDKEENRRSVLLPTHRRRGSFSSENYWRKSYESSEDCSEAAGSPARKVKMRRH
T2 sequence (Q9C0B1 whole entry): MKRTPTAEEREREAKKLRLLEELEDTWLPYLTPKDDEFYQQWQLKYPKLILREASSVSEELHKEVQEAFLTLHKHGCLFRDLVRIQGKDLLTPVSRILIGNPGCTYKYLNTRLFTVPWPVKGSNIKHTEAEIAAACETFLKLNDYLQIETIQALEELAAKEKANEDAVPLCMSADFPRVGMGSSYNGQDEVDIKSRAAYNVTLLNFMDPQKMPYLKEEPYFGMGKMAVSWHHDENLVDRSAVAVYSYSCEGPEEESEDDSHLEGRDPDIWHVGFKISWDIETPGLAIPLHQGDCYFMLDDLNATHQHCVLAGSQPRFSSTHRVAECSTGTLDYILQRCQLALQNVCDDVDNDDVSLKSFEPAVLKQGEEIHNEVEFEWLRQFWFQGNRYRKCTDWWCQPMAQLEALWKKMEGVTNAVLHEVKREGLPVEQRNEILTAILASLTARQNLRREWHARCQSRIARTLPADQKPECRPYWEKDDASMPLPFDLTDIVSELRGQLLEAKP

IC50 (ALKBH5 [1]; [13]): 36.1 µM | melting point: 230 °C | IC50 (FTO [2]; [14]): 48.1 µM
SMILES: Nc1ncc(-c2ccc3cc(O)ccc3c2)cn1 [FTO-10, 6-(2-aminopyrimidin-5-yl)naphthalen-2-ol]
selectivity between FTO and ALKBH5 (FTO [2]): equivalent inhibitors towards both demethylases | size of tumorospheres [3, 15]: significant reduction in size of the tumorospheres

IC50 (ALKBH5 [1]; [13]): 19.5 µM | melting point: 230 °C | IC50 (FTO [2]; [14]): 11.3 µM
SMILES: COc1ncc(-c2ccc3nc(C)ccc3c2)cn1 [FTO-11, 6-(2-methoxypyrimidin-5-yl)-2-methylquinoline]
selectivity between FTO and ALKBH5 (FTO [2]): equivalent inhibitors towards both demethylases | size of tumorospheres [3, 15]: significant reduction in size of the tumorospheres

SMILES: Cc1noc(C)c1-c1cc(Cl)c(Nc2ccccc2C(=O)NO)c(Cl)c1 [FB23-2]
IC50 (ALKBH5 [4]): > 40 µM | cellular concentration relative to FB23 (fold) (MONOMAC6 and NB4 cells): 3-10

SMILES: COc1ncc(-c2ccc3nc(N)sc3c2)cn1 [FTO-04]
neurosphere size / formation [5]: without impairing hNSC neurosphere growth; also recorded: no alteration in neurosphere size; also recorded: without significantly altering hNSC neurosphere formation | m6A mRNA levels (dot blot) [6]: increase m6A mRNA levels significantly; also recorded: increases m6A mRNA levels | size of tumorospheres [7]: significantly decrease the size of tumorospheres | IC50 (FTO [8]): 2790 ± 1300 nM | potency against FTO relative to MA (fold) (FTO [2]; IC50 compared with MA (12.5)): approximately 4 | size of tumorospheres [9]: significantly decrease the size of tumorospheres | size of tumorospheres ([3]; TS576, 20 μM): significantly decrease the size of tumorospheres | size of tumorospheres [3, 15]: significant reduction in size of the tumorospheres | mechanism of inhibition of FTO (FTO [10]): competitive inhibitor; also recorded: competitive mechanism of inhibition

SMILES: COc1ccc2cc(-c3cnc(N)nc3)ccc2c1 [FTO-12, 5-(6-methoxynaphthalen-2-yl)pyrimidin-2-amine]
inhibition of ALKBH5 at the highest concentration measured (ALKBH5 [1]; highest concentration measured): no measurable inhibition | IC50 (ALKBH5 [1]; [13]): > 40 µM | melting point: 230 °C | selectivity between FTO and ALKBH5 (FTO [2]): five-fold or higher | IC50 (FTO [2]; [14]): 18.3 ± 1.7 µM | size of tumorospheres [3, 15]: significant reduction in size of the tumorospheres

mechanism of inhibition of ALKBH5 (ALKBH5 [11]): competitive inhibitor | IC50 (ALKBH5 [1]; Table 700 compounds): 0.9 ± 0.7 µM | IC50 (FTO [2]; Table 700 compounds): > 40 µM | elogD [12]: 0.29
SMILES: CC(C)(C)OC(=O)N1CSC[C@@H]1CN [ALK-04]
B16 tumor growth during immunotherapy (B16 melanoma tumors): significantly reduced tumor growth | B16 cell proliferation (B16 cells): not significantly affected

SMILES: Cc1noc(C)c1-c1cc(Cl)c(Nc2ccccc2C(=O)O)c(Cl)c1 [FB23]
IC50 (ALKBH5 [4]): > 40 µM
